Results published in publication PMC9468151, “Identification of a binding site on soluble RANKL that can be targeted to inhibit soluble RANK-RANKL interactions and treat osteoporosis” (Nature Communications, 2022).
“And” between values parts separate entries of the source, which are not always exact repeats. Identical values can stand only once.

Key:
[1] = tested on: NF-κB, MAPK and PI3K-AKT signaling; assay: Western blotting of RANKL-RANK signaling in RAW264.7 cells; assay type: cell-based, mouse; conditions: RAW264.7, 5 μM
Experimental: The mRNA expression level of S3-15 was measured by RT–qPCR as primary described. Total cellular RNA sample was prepared using RNAiso Plus, followed by reverse transcription with PrimeScript™ MixRT Master Mix reverse transcriptase kit. Then quantitative real-time PCR assays were performed with TB Green™ premix EX Taq™ II kit on an Applied Biosystems. […] signaling inhibiting effect was determined by western blotting. RAW264.7 cells were treated with 5 μM S3-15 with or without sRANKL (100 ng/mL) for 5, 10, 30 and 60 min after starved for 1 h. Then the cells were washed with cold PBS and lysed by RIPA Lysis Buffer. Cell lysates were then processed for Western Blotting analyses. Primary antibody binding was detected using rat secondary antibodies (1:5000) coupled with enhanced chemiluminescence (ECL) reagents (Thermo Scientific) and visualized on Tanon 5200. Primers used for qPCR and antibodies used for western blotting were seen supplementary materials for details.

[2] = tested on: mRANKL induced osteoclastogenesis; assay: mRANKL induced osteoclastogenesis assay; assay type: cell-based, mouse; conditions: for OC inhibitory ratio, mRANKL induced (fig. 3d IC50 curve data): replicates
OVX mice = assay: Osteoporosis therapeutic study in OVX mice (micro-CT); assay type: in vivo, mouse; conditions: S3-15 10 mg/kg/day 4 weeks, individual animals
Experimental: Female SD rats or C57BL/6 mice were cared until they grown up to 6 months old or 10 weeks old, respectively. Then we subjected them to either bilateral ovariectomy or sham operation after anesthesia with 10% chloral hydrate (0.3 mL/100 g). Then all the rats or mice were intramuscular injected of penicillin to prevent infection in the first week of surgery. For rat experiments, after 12 weeks of operation, 3 rats from sham-operated or ovariectomized groups were random selected to determine bone mass by micro-CT imaging biopsy to verify successful produced bone loss(data unshown). Then the OVX rats were individually administrated with S3-15, S3, and S3-05 orally with (10 mg/kg/day) for another 12 weeks. For mouse experiments, after 4 weeks of surgery, the OVX mice were treated with 10 mg/kg/day S3-15 for another 4 weeks.
The weight of rats or mice were recorded every week in the treatment period. After treatment, the rats were harvested, the serum, heart, liver, spleen, lung, kidney, thymus, and femurs were all collected and subjected to subsequent analysis. The right femurs of rats or mice were cleaned excess soft tissue, fixed in 10% formalin, and processed them for microcomputed tomography (micro-CT) analysis. Left mice femurs were collected and excarnate for biomechanical strength testing. Mice peripheral blood were as well as collected for flow cytometry analyzing.
The right femurs of rats or mice were further analyzed with micro-CT on Inveon PET/CT (Siemens, Germany). We used micro-CT to scan the femur from the femoral head to the femoral condyle, using 19 μm resolution, 80 kV 500uA, 360 projection, 3000-6000 image threshold, full rotation cone beam. Three-dimensional reconstruction and histomorphometric analyses of trabecular bone were conducted with the IAW (Inveon analysis workstation) analysis software. […] Trabecular bone parameters were measured including bone volume/tissue volume (BV/TV), bone surface area/bone volume (BS/BV), trabecular number (Tb.N), trabecular thickness (Tb.Th), trabecular separation(Tb.Sp) and trabecular pattern factor(Tb.P.F).

[3] = target: T1, binary-RANKL (L-RANKL, mRANKL mimic) (Rattus norvegicus, UniProt Q9ESE2, D175N); assay: Isothermal titration calorimetry (ITC) with binary-RANKL; assay type: binding; conditions: 25 °C, PBS 0.8% DMSO; read-out: ITC KD with binary-RANKL (printed +mRANKL in Fig. 3a)
T1 construct: (3) mRANKL (sRANKL-GSGS-sRANKL, rat 159-318 aa); His6-sumo (N); made in house; host or cells: Escherichia coli BL21 (DE3)
T1 sequence (Q9ESE2 with tags, fused parts or gaps D175N): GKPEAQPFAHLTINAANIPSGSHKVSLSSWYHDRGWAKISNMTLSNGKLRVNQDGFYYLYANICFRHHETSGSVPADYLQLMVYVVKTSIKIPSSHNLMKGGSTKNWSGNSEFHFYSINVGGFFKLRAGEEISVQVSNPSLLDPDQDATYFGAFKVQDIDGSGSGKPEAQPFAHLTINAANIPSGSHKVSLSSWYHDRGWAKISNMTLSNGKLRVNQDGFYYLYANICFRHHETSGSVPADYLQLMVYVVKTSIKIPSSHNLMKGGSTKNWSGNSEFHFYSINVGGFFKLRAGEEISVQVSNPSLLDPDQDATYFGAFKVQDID
Experimental: ITC titrations were performed on the MicroCal iTC200 system at 25 °C[55]. Working stocks of compound S3-15 were prepared in 100% DMSO at 50 mM and then diluted to 500 μM at PBS with final DMSO concentration at 0.8% (v/v). PBS with 0.8% DMSO was used as ITC buffer. Purified sRANKL or L-RANKL protein was buffer exchanged into same ITC buffer using a Millipore spin column. S3-15 at 500 μM was loaded into a syringe and protein was loaded into an isothermal calorimeter cell. During titration, S3-15 in the […] was injected (2 μL per injection, 25 injections in total, and 180 s between each injection) regularly from a rotating syringe into protein solution in the isothermal calorimeter cell. The sample cell was stirred at 385 rpm. Reference cell power was set to 5 μcal/s. Control experiments were conducted under the same conditions using buffer solution instead of S3-15. Data were analyzed using a one-site binding model in Origin 7.1 software for ITC version 7.0 (MicroCal). The dissociation constant, KD, was calculated according to equation KD = 1/K. All other parameters, K ([…]), N (varying the stoichiometry), ΔH (enthalpy of the reaction), and ΔG ([…] of the reaction) were determined from the titration data.

[4] = target: mouse mRANKL and mouse OPG (Mus musculus, UniProt O35235); assay: mRANKL-OPG binding, HEK 293T cells with full length mouse RANKL; assay type: cell-based
Chain of mouse mRANKL and mouse OPG (O35235 whole entry): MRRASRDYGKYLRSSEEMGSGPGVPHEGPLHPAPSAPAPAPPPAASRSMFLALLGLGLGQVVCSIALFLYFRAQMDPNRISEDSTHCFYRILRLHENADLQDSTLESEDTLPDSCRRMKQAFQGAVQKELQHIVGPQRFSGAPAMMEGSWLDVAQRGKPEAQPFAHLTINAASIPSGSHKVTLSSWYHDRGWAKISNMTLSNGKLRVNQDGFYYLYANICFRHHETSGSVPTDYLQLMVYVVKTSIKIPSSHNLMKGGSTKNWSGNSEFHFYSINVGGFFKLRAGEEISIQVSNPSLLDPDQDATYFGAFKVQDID
Experimental: mRANKL-OPG: MC3T3-E1 cells were differentiated by osteoblast differentiation medium (Pythonbio, China) for 2 days. Then cells were exposed to 1 M NaCl for 5 minutes to remove endogenous OPG, washed once in PBS, and fixed with 70% ethanol for 5 minutes at 4 °C. Fixed cells were wash once by PBS and then exposed to PBS that containing 100 ng mouse OPG (Sino, China) or 100 ng mouse OPG with 1 μM S3-15 and incubated for an additional 30 min at 4 °C. Cell layers were washed 2 times with PBS and lysed with 1% triton in PBS. The concentration of OPG in cell lysates were measured with an OPG ELISA kit (USCN, China). Similar proceed were performed using HEK 293 T cells that transfer full length mouse RANKL or human RANKL.

For `CC(=O)/C(=N\Nc1ccccc1C(=O)O)C(=O)Nc1ccccn1` [S3-15], the “MAPK signaling (phosphorylation of ERK, JNK, p38)” value [1] was “abrogated MAPK signaling”, the “PI3K-AKT signaling (phosphorylation of PI3K, AKT)” value [1] was “reduced PI3K-AKT signaling” and the “RANKL-induced NF-κB signaling (phosphorylation of IKKα, IκBα, p65)” value [1] was “suppresses RANKL-induced NF-κB signaling”. The “OC inhibitory ratio, mRANKL induced (fig. 3d IC50 curve data)” value (from here on “OC inhibitory ratio, mRANKL induced”) ([2]; 0.0023464 μM) was -1.8319 and -1.185 and 3.987, the “OC inhibitory ratio, mRANKL induced” value ([2]; 0.00774313 μM) was -0.2155 and 3.341 and 0.431 and the “OC inhibitory ratio, mRANKL induced” value ([2]; 0.0255523 μM) was 1.724 and 9.483 and -1.8319. The “OC inhibitory ratio, mRANKL induced” value ([2]; 0.0843226 μM) was 10.4526 and 18.2112 and 10.1293, the “OC inhibitory ratio, mRANKL induced” value ([2]; 0.278265 μM) was 19.8276 and 9.806 and 12.7155 and the “OC inhibitory ratio, mRANKL induced” value ([2]; 0.918274 μM) was 19.8276 and 9.806 and 12.7155. The “OC inhibitory ratio, mRANKL induced” value ([2]; 3.0303 μM) was 46.6595 (2×) and 50.5388, the “OC inhibitory ratio, mRANKL induced” value ([2]; 10 μM) was 62.8233 (2×) and 61.5302 and the “OC inhibitory ratio, mRANKL induced” value ([2]; 33 μM) was 90.3017 and 88.3621 and 89.6552. The IC50 ([2]; Mus musculus, +mRANKL) was 4.14 µM, the BV/TV (OVX mice) was 0.134 and 0.2459 and 0.2549 and 0.1314 and 0.1319 and 0.1667 and 0.09144 and 0.215 and the Tb.N (OVX mice) was 3.01 1/mm and 5.848 1/mm and 5.596 1/mm and 2.742 1/mm and 2.832 1/mm and 3.86 1/mm and 1.833 1/mm and 4.649 1/mm. The Tb.Th (OVX mice) was 0.0445 mm and 0.04205 mm and 0.04556 mm and 0.04792 mm and 0.04659 mm and 0.04318 mm and 0.04987 mm and 0.04624 mm, the Kd [3] was 124 µM and the “mouse mRANKL and mouse OPG binding” value ([4]; 293T cells, 1 μM) was “no effects”. For the same compound, the “mRANKL-OPG binding signal (fig. S4o)” value ([4]; OPG+S3-15) was 0.9339 and 0.9921 and 0.6577.
